Data published in patent publication US20120276012A1, “Method of Treatment and Screening Method” (ISIS INNOVATION LIMITED, priority 2009, published 2012).
Residue numbers refer to the chain shown, from its start.

Experiments:
[1] = molecular target: T1, creatine transporter (CrT) (Mus musculus, UniProt Q8VBW1); test: 14C-labelled creatine uptake in HL-1 cells expressing endogenous CrT; type: cell-based; conditions: HL1 cells incubated with 250 μM creatine; increasing extracellular β-GPA concentration; FIG. 5B
T1 construct: these cells express endogenous CrT; endogenous in cells; host or cells: HL-1 cells (mouse atrial cardiomyocyte-like)
T1 sequence (Q8VBW1 1-635): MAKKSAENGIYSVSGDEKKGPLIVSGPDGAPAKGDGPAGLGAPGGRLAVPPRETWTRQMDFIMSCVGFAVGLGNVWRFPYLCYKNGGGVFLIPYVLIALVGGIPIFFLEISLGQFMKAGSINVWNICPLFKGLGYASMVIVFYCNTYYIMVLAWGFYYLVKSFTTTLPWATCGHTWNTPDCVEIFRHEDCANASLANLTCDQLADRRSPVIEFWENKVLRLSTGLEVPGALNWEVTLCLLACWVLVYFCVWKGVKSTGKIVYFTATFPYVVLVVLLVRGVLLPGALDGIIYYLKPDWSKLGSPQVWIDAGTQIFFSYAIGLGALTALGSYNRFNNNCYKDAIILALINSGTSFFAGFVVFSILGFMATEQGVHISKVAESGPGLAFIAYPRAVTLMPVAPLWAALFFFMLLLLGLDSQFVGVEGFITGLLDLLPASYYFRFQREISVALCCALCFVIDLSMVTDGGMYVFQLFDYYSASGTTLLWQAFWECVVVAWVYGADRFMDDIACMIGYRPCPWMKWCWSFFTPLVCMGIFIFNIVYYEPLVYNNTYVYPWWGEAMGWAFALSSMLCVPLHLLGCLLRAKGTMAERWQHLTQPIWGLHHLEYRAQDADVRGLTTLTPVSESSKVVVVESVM
Protocol: Cells (1×10^5 cells) were plated into 24-well-plates, and incubated for 18 hours to form monolayers. Each well was spiked with 10 μl (37 kBq) ^14C-creatine, 500 μM of non-radiolabelled Cr, and 30 μM of test compound (β-guanidinopropionic acid) (performed in triplicate). After incubation at 37° C. for 60 min (95% air, 5% CO2), media was aspirated, cells solubilised and lysed using PBS/TritonX-100. A scintillation counter measures signal attributed to intracellular radiolabel, with Cr uptake estimated against known standards. Control wells contain no test compound to measure normal background uptake, and control wells containing only cells are used for protein quantification. […] HL-1 cells that are derived from mouse atrial tumour cells and have a beating cardiomyocyte-like phenotype. […] Changes in creatine uptake were measured using the ^14C screen described above.

[2] = molecular target: T2, creatine transporter (CrT) (Homo sapiens, UniProt P48029); test: 14C-labelled creatine uptake in fibroblast 3T3 cells that stably express the CrT; type: cell-based; conditions: 3T3 cells stably expressing CrT; increasing extracellular β-GPA concentration; 14C-creatine, 37° C. for 60 min; FIG. 5B
T2 construct: expressed in transfected cells
T2 sequence (P48029 1-635): T1 sequence (Q8VBW1 1-635) with V24A, S25P, A38V, A42T, T223G, T368A, I539V
Protocol: We have developed a sensitive and specific assay for measuring ^14C-labelled Cr uptake in cell culture using fibroblast 3T3 cells that stably express the CrT. Cells (1×10^5 cells) were plated into 24-well-plates, and incubated for 18 hours to form monolayers. […] After incubation at 37° C. for 60 min (95% air, 5% CO2), media was aspirated, cells solubilised and lysed using PBS/TritonX-100. A scintillation counter measures signal attributed to intracellular radiolabel, with Cr uptake estimated against known standards. Control wells contain no test compound to measure normal background uptake, and control wells containing only cells are used for protein quantification.

`N=C(N)NCCC(=O)O` [β-GPA, β-guanidinopropionic acid] was tested, and the creatine uptake [1] was “dose-dependent inhibition of creatine uptake” and the creatine uptake [2] was “dose-dependent inhibition of creatine uptake”.
